Results reported in patent US10213415B2, “Compounds as opioid receptor modulators” (JANSSEN PHARMACEUTICA NV, priority 2004, dated 2019).

Tests used:
human mu opioid receptor = biological target: T1, human mu opioid receptor (Homo sapiens, UniProt P35372); experiment: Human Mu Opioid Receptor Binding Assay (CHO membranes, 3H-Damgo); conditions: read-out: hKi μ
T1 construct: purchased Perkin Elmer RBHOMM400UA; host or cells: Chinese Hamster Ovary cells (recombinant expression)
Method: Membranes from Chinese Hamster Ovary cells expressing the human […] opioid receptor (Perkin Elmer #RBHOMM400UA) are homogenized in assay buffer (50 mM Tris, pH 7.5 with 5 mM MgCl2) using a glass tissue grinder, Teflon pestle and a Steadfast Stirrer (Fisher Scientific). The concentration of membranes is adjusted to 300 μg/mL in assay buffer and 100 μL is dispensed into each well of the assay plate, a 96 well round bottom polypropylene plate. Compounds to be tested are solubilized in DMSO (Pierce), 10 mM, then diluted in assay buffer to 6× the desired final concentration. The ligand, ^3H-Damgo (Perkin Elmer #NET-902) is also diluted in assay buffer to 3.6 nM. In a second 96 well round bottom polypropylene plate, known as the premix plate, 60 μL of the 6× compound is combined with 60 μL of 3.6 nM ^3H-Damgo. From this premix plate 50 μL is transferred to the assay plate containing the membranes, in duplicate. The assay plate is incubated for 2 h at room temperature. A GF/C 96 well filter plate (Perkin Elmer #6005174) is pretreated with 0.3% polyethylenimine for 30 min. The contents of the assay plate are filtered through the filter plate using a Packard Filtermate Harvester, and washed 3 times with 0.9% saline that is 4° C. The filter plate is dried, the underside sealed, and 30 μL Microscint20 (Packard #6013621) added to each well. A Topcount-NXT Microplate Scintillation Counter (Packard) is used to measure emitted energies in the range of 2.9 to 35 KeV. […] Nonspecific binding is determined in the presence of 1 μM unlabelled Damgo (Tocris #1171).

[1] = biological target: T2, human delta subtype 2 opioid receptor (Homo sapiens, UniProt P41143); experiment: Human Delta Opioid Receptor Binding Assay (CHO membranes, 3H-Naltrindole); conditions: read-out: hKi δ
T2 construct: purchased Perkin Elmer RBHODM400UA; host or cells: Chinese Hamster Ovary cells (recombinant expression)
T2 sequence (P41143 whole entry): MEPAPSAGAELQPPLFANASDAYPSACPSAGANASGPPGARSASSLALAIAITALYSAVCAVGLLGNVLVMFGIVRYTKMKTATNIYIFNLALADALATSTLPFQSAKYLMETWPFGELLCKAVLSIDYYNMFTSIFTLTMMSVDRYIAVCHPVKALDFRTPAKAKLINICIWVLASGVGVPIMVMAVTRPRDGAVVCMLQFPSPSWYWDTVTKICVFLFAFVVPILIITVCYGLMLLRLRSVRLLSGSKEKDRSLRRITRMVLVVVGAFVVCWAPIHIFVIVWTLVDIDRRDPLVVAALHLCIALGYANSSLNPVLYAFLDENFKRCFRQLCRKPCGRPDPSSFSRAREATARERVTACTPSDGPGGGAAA
Method: This assay is designed to test the ability of a compound to interfere with the binding of tritiated Naltrindole to the human delta subtype 2 opioid receptor. Membranes from Chinese Hamster Ovary cells expressing the human delta subtype 2 opioid receptor (Perkin Elmer #RBHODM400UA) are homogenized in assay buffer (50 mM Tris, pH 7.5 with 5 mM MgCl2) using a glass tissue grinder, Teflon pestle and a Steadfast Stirrer (Fisher Scientific). The concentration of membranes is adjusted to 100 μg/mL in assay buffer and 100 μL is dispensed into each well of the assay plate, a 96 well round bottom polypropylene plate. Compounds to be tested are solubilized in DMSO (Pierce), 10 mM, then diluted in assay buffer to 6× the desired final concentration. The ligand, ^3H-Naltrindole (Perkin Elmer #NET-1065) is also diluted in assay buffer to 6 nM. In a second 96 well round bottom polypropylene plate, known as the premix plate, 60 μL of the 6× compound is combined with 60 μL of 6 nM ^3H-Naltrindole. From this premix plate 50 μL is transferred to the assay plate containing the membranes, in duplicate. The assay plate is incubated for 30 min at room temperature. A GF/C 96 well filter plate (Perkin Elmer #6005174) is pretreated with 0.3% polyethylenimine for 30 min. The contents of the assay plate are filtered through the filter plate using a Packard Filtermate Harvester, and washed 3 times with 0.9% saline that is 4° C. The filter plate is dried, the underside sealed, and 30 μL Microscint20 (Packard #6013621) added to each well. A Topcount-NXT Microplate Scintillation Counter (Packard) is used to measure emitted energies in the range of 2.9 to 35 KeV. Results are compared to maximum binding, wells receiving no inhibitors. Nonspecific binding is determined in the presence of 1 μM unlabelled Naltrindole (Sigma #N115).

T1 sequence (P35372 whole entry): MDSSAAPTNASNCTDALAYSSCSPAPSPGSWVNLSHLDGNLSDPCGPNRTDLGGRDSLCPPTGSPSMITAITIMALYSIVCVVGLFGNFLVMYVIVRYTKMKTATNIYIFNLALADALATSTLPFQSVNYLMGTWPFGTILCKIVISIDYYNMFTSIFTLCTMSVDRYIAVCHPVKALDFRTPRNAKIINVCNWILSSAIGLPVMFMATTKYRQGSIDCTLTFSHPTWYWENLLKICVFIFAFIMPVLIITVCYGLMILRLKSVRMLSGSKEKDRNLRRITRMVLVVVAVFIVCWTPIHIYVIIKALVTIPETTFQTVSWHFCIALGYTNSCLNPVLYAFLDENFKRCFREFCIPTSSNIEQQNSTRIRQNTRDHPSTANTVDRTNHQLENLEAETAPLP

## Cc1cc(O)cc(C)c1C[C@H](N)C(=O)N(Cc1nc(-c2cccc(C(N)=O)c2)c(C)[nH]1)C(C)C [Cpd 73]
Human mu opioid receptor
  Ki: 1.9 nM
[1]
  Ki: 151 nM

## Cc1cc(O)cc(C)c1C[C@H](N)C(=O)N(Cc1nc(-c2cccc(-c3ccccc3)c2)c(C)[nH]1)C(C)C [Cpd 134]
Human mu opioid receptor
  Ki: 121 nM
[1]
  Ki: 463 nM

## Cc1cc(C(N)=O)cc(C)c1C[C@H](N)C(=O)N(Cc1ccccc1)[C@@H](C)c1nc(-c2cccc(F)c2)c[nH]1 [Cpd 59]
Human mu opioid receptor
  Ki: 5.1 nM
[1]
  Ki: 120 nM

## Cc1cc(O)cc(C)c1C[C@H](N)C(=O)N(Cc1ccccc1)[C@@H](Cc1ccccc1)c1nc(-c2ccccc2)c[nH]1 [Cpd 105]
Human mu opioid receptor
  Ki: 410 nM
[1]
  Ki: 742 nM

## COc1cccc(-c2nc(CN(C(=O)[C@@H](N)Cc3c(C)cc(O)cc3C)C(C)C)[nH]c2C)c1 [Cpd 142]
Human mu opioid receptor
  Ki: 8.2 nM
[1]
  Ki: 454 nM

## CC(=O)Oc1ccc(CN(C(=O)[C@@H](N)Cc2c(C)cc(O)cc2C)[C@@H](C)c2nc(-c3ccccc3)c[nH]2)cc1 [Cpd 88]
Human mu opioid receptor
  Ki: 5.8 nM
[1]
  Ki: 16.2 nM

## Cc1cc(O)cc(C)c1CC(N)C(=O)Oc1cc(C)c(C[C@H](N)C(=O)N(C(C)C)[C@@H](CC(C)C)c2nc(-c3ccccc3)c[nH]2)c(C)c1 (stereo partly drawn) [Cpd 139]
Human mu opioid receptor
  Ki: 58 nM
[1]
  Ki: 1260 nM

## Cc1cc(O)cc(C)c1C[C@H](N)C(=O)N(C(C)C)[C@H](C)c1nc(-c2ccc(F)cc2)c[nH]1 [Cpd 82]
Human mu opioid receptor
  Ki: 2.39 nM
[1]
  Ki: 46 nM

## Cc1cc(O)cc(C)c1C[C@H](N)C(=O)N(C(C)C)[C@@H](C)c1nc(-c2ccc(F)cc2)c[nH]1 [Cpd 84]
Human mu opioid receptor
  Ki: 1.1 nM
[1]
  Ki: 9.6 nM

## CC(C)N(C(=O)[C@@H](N)Cc1cccc(C(N)=O)c1)[C@@H](Cc1ccccc1)c1nc(-c2ccccc2)c[nH]1 [Cpd 136]
Human mu opioid receptor
  Ki: 726 nM
[1]
  Ki: 1610 nM

## COC(=O)c1cccc(CN(C(=O)[C@@H](N)Cc2c(C)cc(O)cc2C)[C@@H](C)c2nc(-c3ccccc3)c[nH]2)c1 [Cpd 52]
Human mu opioid receptor
  Ki: 12.1 nM
[1]
  Ki: 66 nM

## Cc1cc(O)cc(C)c1C[C@H](N)C(=O)N(Cc1nc(-c2ccc(C(N)=O)cc2)c(C)[nH]1)C(C)C [Cpd 69]
Human mu opioid receptor
  Ki: 4.4 nM
[1]
  Ki: 272 nM

## Cc1cc(O)cc(C)c1C[C@H](N)C(=O)N(Cc1ccc2ccccc2c1)[C@@H](C)c1nc(-c2ccccc2)c[nH]1 [Cpd 100]
Human mu opioid receptor
  Ki: 20 nM
[1]
  Ki: 88 nM

## Cc1cc(C(N)=O)cc(C)c1C[C@H](N)C(=O)N(Cc1ccccc1)[C@@H](C)c1nc(-c2ccc(C(F)(F)F)cc2)c(C)[nH]1 [Cpd 74]
Human mu opioid receptor
  Ki: 9.8 nM
[1]
  Ki: 63 nM

## Cc1cc(O)cc(C)c1C[C@H](N)C(=O)N(Cc1nc(-c2cccc(C#N)c2)c(C)[nH]1)C(C)C [Cpd 60]
Human mu opioid receptor
  Ki: 2 nM
[1]
  Ki: 114 nM

## Cc1cc(O)cc(C)c1C[C@H](N)C(=O)N(Cc1nc(-c2cccnc2)c(C)[nH]1)C(C)C [Cpd 124]
Human mu opioid receptor
  Ki: 1.7 nM
[1]
  Ki: 1280 nM

## Cc1cc(O)cc(C)c1C[C@H](N)C(=O)N(Cc1nc(Br)c(C)[nH]1)C(C)C [Cpd 65]
Human mu opioid receptor
  Ki: 0.36 nM
[1]
  Ki: 517 nM

## Cc1[nH]c(CN(C(=O)[C@@H](N)Cc2ccc(O)cc2)C(C)C)nc1-c1cccnc1 [Cpd 153]
[1]
  Ki: > 10000 nM

## Cc1cc(C(N)=O)cc(C)c1C[C@H](N)C(=O)N(Cc1ccccc1)[C@@H](C)c1nc(-c2ccc(F)cc2)c[nH]1 [Cpd 76]
Human mu opioid receptor
  Ki: 1.6 nM
[1]
  Ki: 43.1 nM

## CC(C)[C@@H](c1nc(-c2ccccc2)c[nH]1)N(C(=O)[C@@H](N)Cc1ccc(O)cc1)C(C)C [Cpd 161]
Human mu opioid receptor
  Ki: > 1000 nM
[1]
  Ki: > 10000 nM

## Cc1cc(O)cc(C)c1C[C@H](N)C(=O)N(Cc1nc(-c2ccccc2-c2ccccc2)c(C)[nH]1)C(C)C [Cpd 145]
[1]
  Ki: 267 nM

## Cc1cc(O)cc(C)c1C[C@H](N)C(=O)N(Cc1cccc2ccccc12)[C@@H](C)c1nc(-c2ccccc2)c[nH]1 [Cpd 99]
Human mu opioid receptor
  Ki: 16 nM
[1]
  Ki: 19.3 nM

## Cc1cc(O)cc(C)c1C[C@H](N)C(=O)N(Cc1nc(-c2cccc(S(C)(=O)=O)c2)c(C)[nH]1)C(C)C [Cpd 72]
Human mu opioid receptor
  Ki: 1.03 nM
[1]
  Ki: 71 nM

## Cc1cc(O)cc(C)c1C[C@H](N)C(=O)N(C(C)C)[C@@H](CC(C)C)c1nc(-c2ccccc2)c[nH]1 [Cpd 140]
Human mu opioid receptor
  Ki: 79 nM
[1]
  Ki: 985 nM

## Cc1cc(C(N)=O)cc(C)c1C[C@H](N)C(=O)N(Cc1nc(-c2ccccc2)c[nH]1)C(C)C [Cpd 86]
Human mu opioid receptor
  Ki: 1 nM
[1]
  Ki: 400 nM

## Cc1cc(O)cc(C)c1C[C@H](N)C(=O)N(Cc1ccc(N(C)C)cc1)[C@@H](C)c1nc(-c2ccccc2)cn1C [Cpd 77]
Human mu opioid receptor
  Ki: 1.8 nM
[1]
  Ki: 13.5 nM

## Cc1cc(O)cc(C)c1C[C@H](N)C(=O)N(Cc1nc(-c2cccc3ccccc23)c(C)[nH]1)C(C)C [Cpd 156]
Human mu opioid receptor
  Ki: 0.59 nM
[1]
  Ki: 380 nM

## Cc1cc(O)cc(C)c1C[C@H](N)C(=O)N(C(C)C)[C@@H](Cc1cccc(CN)c1)c1nc(-c2ccccc2)c[nH]1 [Cpd 120]
Human mu opioid receptor
  Ki: 20.8 nM
[1]
  Ki: 740 nM

## Cc1cc(O)cc(C)c1C[C@H](N)C(=O)N(Cc1nc(-c2cc(F)ccc2F)c(C)[nH]1)C(C)C [Cpd 61]
Human mu opioid receptor
  Ki: 3 nM
[1]
  Ki: 243 nM

## Cc1cc(O)cc(C)c1C[C@H](N)C(=O)N(Cc1nc(-c2cc(Cl)cc(Cl)c2)c(C)[nH]1)C(C)C [Cpd 141]
Human mu opioid receptor
  Ki: 52 nM
[1]
  Ki: 252 nM

## Cc1cc(O)cc(C)c1C[C@H](N)C(=O)N(C(C)C)[C@@H](Cc1cccc(C(N)=O)c1)c1nc(-c2ccccc2)c[nH]1 [Cpd 121]
Human mu opioid receptor
  Ki: 25.3 nM
[1]
  Ki: 182 nM

## Cc1cc(O)cc(C)c1C[C@H](N)C(=O)N(Cc1nc(-c2cccc(C(=O)N(C)C)c2)c(C)[nH]1)C(C)C [Cpd 67]
Human mu opioid receptor
  Ki: 4.5 nM
[1]
  Ki: 438 nM

## CC(C)N(C(=O)[C@@H](N)Cc1cccc(C#N)c1)[C@@H](Cc1ccccc1)c1nc(-c2ccccc2)c[nH]1 [Cpd 157]
Human mu opioid receptor
  Ki: 2.2 nM
[1]
  Ki: > 10000 nM

## Cc1cc(O)cc(C)c1C[C@H](N)C(=O)N(Cc1nc(-c2ccc(F)cc2F)c(C)[nH]1)C(C)C [Cpd 71]
Human mu opioid receptor
  Ki: 0.57 nM
[1]
  Ki: 102 nM

## Cc1cc(O)cc(C)c1C[C@H](N)C(=O)N(Cc1cccc(Oc2ccccc2)c1)[C@@H](C)c1nc(-c2ccccc2)c[nH]1 [Cpd 98]
Human mu opioid receptor
  Ki: 48 nM
[1]
  Ki: 54 nM

## CC(C)N(C(=O)[C@@H](N)Cc1ccc(O)cc1)[C@@H](Cc1ccccc1)c1nc(-c2ccccc2)c[nH]1 [Cpd 158]
Human mu opioid receptor
  Ki: 0.23 nM
[1]
  Ki: > 10000 nM

## Cc1cc(O)cc(C)c1C[C@H](N)C(=O)N(Cc1nc(-c2ccc(S(C)(=O)=O)cc2)c(C)[nH]1)C(C)C [Cpd 62]
Human mu opioid receptor
  Ki: 2.4 nM
[1]
  Ki: 69 nM

## COc1ccccc1-c1nc(CN(C(=O)[C@@H](N)Cc2c(C)cc(O)cc2C)C(C)C)[nH]c1C [Cpd 135]
Human mu opioid receptor
  Ki: 7 nM
[1]
  Ki: 1040 nM

## Cc1cc(O)cc(C)c1C[C@H](N)C(=O)N(Cc1nc(-c2ccc(C(=O)O)cc2)c(C)[nH]1)C(C)C [Cpd 123]
Human mu opioid receptor
  Ki: 47 nM
[1]
  Ki: 84 nM

## COc1ccccc1CN(C(=O)[C@@H](N)Cc1c(C)cc(O)cc1C)[C@@H](C)c1nc(-c2ccccc2)c[nH]1 [Cpd 96]
Human mu opioid receptor
  Ki: 9.7 nM
[1]
  Ki: 14.6 nM

## Cc1cc(O)cc(C)c1C[C@H](N)C(=O)N(C(C)C)[C@@H](COCc1ccccc1)c1nc(-c2ccccc2)c[nH]1 [Cpd 138]
Human mu opioid receptor
  Ki: 104 nM
[1]
  Ki: 1180 nM

## Cc1cc(C(N)=O)cc(C)c1C[C@H](N)C(=O)N(Cc1ccccc1)[C@@H](COCc1ccccc1)c1nc(-c2ccccc2)c[nH]1 [Cpd 64]
Human mu opioid receptor
  Ki: 117 nM
[1]
  Ki: 1110 nM

## Cc1cc(C(N)=O)cc(C)c1C[C@H](N)C(=O)N(CCc1ccccc1)[C@@H](C)c1nc(-c2ccccc2)c[nH]1 [Cpd 109]
Human mu opioid receptor
  Ki: 8.2 nM
[1]
  Ki: 77 nM

## Cc1cc(O)cc(C)c1C[C@H](N)C(=O)N(Cc1nc(-c2ccc(N(C)C)cc2)c(C)[nH]1)C(C)C [Cpd 66]
Human mu opioid receptor
  Ki: 6.5 nM
[1]
  Ki: 550 nM

## Cc1[nH]c(CN(C(=O)[C@@H](N)Cc2ccc(O)cc2)C(C)C)nc1-c1ccsc1 [Cpd 152]
[1]
  Ki: > 10000 nM
